Laboratory results reported in patent US20250230226A1, “PLXDC1/PLXDC2 ACTIVATORS AND THEIR USE IN THE TREATMENT OF BLOOD VESSEL DISORDERS” (THE REGENTS OF THE UNIVERSITY OF CALIFORNIA, priority 2019, published 2025).

Tests used:
[1] = test system: CT26.CL25 colon cancer tumor endothelial cells; experiment: Colon CT26 ex vivo model of tumor angiogenesis; type: cell-based, mouse; conditions: for cytotoxicity at 40 µM / cytotoxicity at 10 µM: Mus musculus, Endothelial cell, 48 h, read-out: Cell death
Experimental: An ex vivo tumor angiogenesis model was developed to test the efficacy of anti-cancer candidate agents. The following protocol describes the Ex Vivo Tumor Angiogenesis Model.
• 1. The day before the experiment, all necessary tools were sprayed with 70% ethanol and sterilized under UV light overnight, including blade, dissecting and micro-dissecting scissors and […]. 24-well dishes were placed at 4° C. to pre-chill plates and Matrigel was thawed, 24 hours before tumor dissection. • 2. 70% ethanol was sprayed on working bench. Two sterile petri dishes were prepared with 10 ml sterile PBS. The following steps 3 and 4 are necessary for mouse tumor models. For fresh human tumor, steps 3 and 4 are skipped. • 3. The tumor-bearing mice were euthanized. 70% ethanol was sprayed on the mouse and the tumor was removed using sterilized dissecting tools (avoid the fur). The tumor was rinsed in petri dish with sterile PBS to remove ethanol and fur. The tumor was transferred to a new petri dish with PBS for dissection. The dish is placed on ice. • 4. Pre-chilled sterile pipet tips were used to seed regular Matrigel in 24 well plates on ice. Matrigel (30 μl) was dropped in the middle of each well without touching the edge of the well (avoid introducing bubbles if possible). • 5. The tumor was cut in halves using the sterile blade. Healthy tumor tissue that is not necrotic and is within the tumor capsule was identified and isolated. The healthy tumor tissue was cut into small pieces. For instance, a suitable size for the tumor tissue is 0.5 mm (H)×0.5 mm (L)×0.3 mm (D) with a total volume of 0.075 mm^3. • 6. Each tumor piece was gently transferred and embedded in the Matrigel drop in the 24-well plate. The embedded piece was placed in the bottom and middle of each Matrigel drop. The plate was kept on ice all the time. • 7. After seeding the tumor pieces, plates were incubated in a 37° C. cell culture incubator without medium for 10 minutes in order for the Matrigel to solidify. • 8. Endothelial Growth Medium (0.5 ml) was added to each well and incubated at 37° C. with 5% CO2. Treatment was not added until the new endothelial cells was grown out of the tumor or were larger than 3 mm in diameter. This usually takes 4 days for the LL2 Lewis lung cancer model and 7 days for the CT26 colon cancer model. For human tumor models, the growth time is typically 2-3 weeks, depending on the tumor type. Media was changed every 4 days during prolonged culture. Typically, when the tumor tissue grows to 2 mm in diameter, it was good for drug testing. A size of about 3 mm in diameter can make visualization easier. • 9. When the assay was ready to be analyzed for cell death (e.g., 48 hours after drug addition), the dye mixture was prepared by mixing 6 μl of green dye to stain live cells (5 mg/ml Fluorescein diacetate or FDA in DMSO) with 30 μl of red dye (2.5 mg/ml Propidium iodide or PI in PBS) to stain dead cells in an Eppendorf tube. The FDA dye needs to be stored frozen in a −20° C. freezer because it has a labile ester bond. • 10. 1 μl of the dye mixture was added to each well of the 24-well dish. It is usually preferred to do one 24-well dish at a time given the amount of time needed to take pictures (the green dye is not as stable in the cells in the long term). • 11. The dish was gently rocked a few times to mix the dye with the media in the wells and incubate the dish at 37° C. for 10 min (too long incubation can make the green signal too intense). • 12. Each well was washed with 0.5 ml of sterile PBS and then 0.5 ml of phenol red free SFM was added to each well. Alternatively 0.5 ml of regular Endothelial Cell Growth Media can be added to each well if this well needs to be continuously maintained after the experiment. • 13. An inverted microscope using the 2× objective lens was used to observe morphological changes in the experimental wells. • 14. […]

[2] = test system: LL/2 lung cancer tumor endothelial cells; experiment: Lung LL2 ex vivo model of tumor angiogenesis; type: cell-based, mouse; conditions: for Cell death: drug treatment for two days, ratio of red area to total endothelial cell area; for 48 hrs (morphology observations): LL/2 tumor endothelial cells; for cytotoxicity at 40 µM / cytotoxicity at 20 µM: Mus musculus, Endothelial cell, 48 h, read-out: Cell death
How it was run: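 LL2 mouse tumor fragments (~0.075 mm³) embedded in Matrigel and cultured in endothelial growth medium at 37 °C until endothelial outgrowth (~4 days) before treatment. Cell death assessed e.g. 48 h after drug by fluorescein diacetate (live)/propidium iodide (dead) staining and red/green fluorescence imaging.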

| SMILES | 48 hrs (morphology observations after 48 hours) ([1]; Conc. 40 μm) | cytotoxicity at 40 µM [1] [%] | Cell death ([2]; 40 μm) [%] | 48 hrs (morphology observations) ([2]; 40 μm) | other results |
| --- | --- | --- | --- | --- | --- |
| CCc1ccc(S(=O)(=O)c2cnc3ccc(C(=O)O)cc3c2N2CCC(O)CC2)cc1 [Compound 65] | 0 | 0 | 10 |  |  |
| CCc1ccc(S(=O)(=O)c2cnc3ccc(C(=O)O)cc3c2N2CCCN(C)CC2)cc1 [Compound 66] | 0 | 0 | 10 |  |  |
| CCc1ccc(S(=O)(=O)c2cnc3ccc(C(=O)O)cc3c2N2CCC(N3CCCCC3)CC2)cc1 [Compound 67] | 0 | 0 | 10 |  |  |
| CCN(CC)c1c(S(=O)(=O)c2ccc(OC)c(OC)c2)cnc2ccc(OC(F)(F)F)cc12 [Compound 68] | ** (more than 50% but less than 100% of endothelial cells vesicularize in cell shape) | 50 | 80 | *** (more than 50% but less than 100% of endothelial cells vesicularize in cell shape) |  |
| COc1ccc(S(=O)(=O)c2cnc3ccc(OC(F)(F)F)cc3c2NCCO)cc1OC [Compound 69] | 0 | 0 |  | 0 | cytotoxicity at 40 µM [2]: 20% |
| COc1ccc(S(=O)(=O)c2cnc3ccc(OC(F)(F)F)cc3c2N2CCCC(O)C2)cc1OC (stereo not drawn) [Compound 70] | 0 | 10 | 40 | *** (more than 50% but less than 100% of endothelial cells vesicularize in cell shape) |  |
| CCCN(CCC)c1c(S(=O)(=O)c2ccc(OC)c(OC)c2)cnc2ccc(OC(F)(F)F)cc12 [Compound 71] | 0 | 0 | 10 | * (50% or less of cells vesicularize in cell shape) |  |
| COc1ccc(S(=O)(=O)c2cnc3ccc(OC(F)(F)F)cc3c2N(CCO)CCO)cc1OC [Compound 72] | 0 | 0 | 20 |  |  |
| CCCCN(CCCC)c1c(S(=O)(=O)c2ccc(OC)c(OC)c2)cnc2ccc(OC(F)(F)F)cc12 [Compound 74] | *** (100% of endothelial cells vesicularize in cell shape) | 100 | 60 | *** (more than 50% but less than 100% of endothelial cells vesicularize in cell shape) |  |
| CCc1ccc(S(=O)(=O)c2cnc3ccc([N+](=O)[O-])cc3c2N2CCC(O)CC2)cc1 [Compound 75] | 0 | 0 | 80 |  |  |
| CCc1ccc(S(=O)(=O)c2cnc3ccc([N+](=O)[O-])cc3c2N2CCCN(C)CC2)cc1 [Compound 76] | ** (more than 50% but less than 100% of endothelial cells vesicularize in cell shape) | 100 | 20 | 0 |  |
| CCc1ccc(S(=O)(=O)c2cnc3ccc([N+](=O)[O-])cc3c2N2CCC(N3CCCCC3)CC2)cc1 [Compound 77] | 0 | 40 | 80 |  |  |
| CCc1ccc(S(=O)(=O)c2cnc3ccc([N+](=O)[O-])cc3c2N(CC)CC)cc1 [Compound 78] | 0 | 0 | 40 |  |  |
| CCc1ccc(S(=O)(=O)c2cnc3ccc(OC)cc3c2-n2cncn2)cc1 [Compound 79] |  |  |  |  | 48 hrs (morphology observations after 48 hours) ([1]; Conc. 10 μm): *** (100% of endothelial cells vesicularize in cell shape); cytotoxicity at 10 µM [1]: 100%; Cell death ([2]; 20 μm): 20% |
| CCOC(=O)c1ccc2ncc(S(=O)(=O)c3ccc(CC)cc3)c(-n3cncn3)c2c1 [Compound 80] |  |  |  |  | 48 hrs (morphology observations after 48 hours) ([1]; Conc. 10 μm): *** (100% of endothelial cells vesicularize in cell shape); cytotoxicity at 10 µM [1]: 100%; 48 hrs (morphology observations) ([2]; 20 μm): *** (more than 50% but less than 100% of endothelial cells vesicularize in cell shape); cytotoxicity at 20 µM [2]: 100% |
| CCc1ccc(S(=O)(=O)c2cnc3ccc(OC(F)(F)F)cc3c2N(CC)CC)cc1 [Compound 81] | 0 | 0 |  |  | cytotoxicity at 40 µM [2]: 0% |
| CCc1ccc(S(=O)(=O)c2cnc3ccc(OC(F)(F)F)cc3c2N2CCCC(O)C2)cc1 (stereo not drawn) [Compound 82] | 0 | 10 | 60 |  |  |
| CCOC(=O)c1ccc2ncc(S(=O)(=O)c3ccc(CC)cc3)c(NN3CCN(C)CC3)c2c1 [Compound 84] | * (50% or less of cells vesicularize in cell shape) | 100 |  |  | cytotoxicity at 40 µM [2]: 100% |
| COc1ccc(S(=O)(=O)c2cnc3ccc(OC(F)(F)F)cc3c2NN2CCN(C)CC2)cc1 [Compound 85] | 0 | 50 | 80 |  |  |
| COc1ccc(S(=O)(=O)c2cnc3ccc(OC(F)(F)F)cc3c2-n2cncn2)cc1 [Compound 86] |  |  |  |  | 48 hrs (morphology observations after 48 hours) ([1]; Conc. 10 μm): *** (100% of endothelial cells vesicularize in cell shape); cytotoxicity at 10 µM [1]: 100%; 48 hrs (morphology observations) ([2]; 20 μm): *** (more than 50% but less than 100% of endothelial cells vesicularize in cell shape); cytotoxicity at 20 µM [2]: 100% |
| CCCCN(CCCC)c1c(S(=O)(=O)c2ccc(CC)cc2)cnc2ccc(OC(F)(F)F)cc12 [Compound 87] | 0 | 0 |  |  | cytotoxicity at 40 µM [2]: 0% |
| COc1ccc(S(=O)(=O)c2cnc3ccc(OC(F)(F)F)cc3c2NN2CCN(C)CC2)cc1OC [Compound 88] | *** (100% of endothelial cells vesicularize in cell shape) | 60 | 70 | 0 |  |
| COc1ccc(S(=O)(=O)c2cnc3ccc(OC(F)(F)F)cc3c2-n2cncn2)cc1OC [Compound 89] |  |  |  |  | 48 hrs (morphology observations after 48 hours) ([1]; Conc. 10 μm): *** (100% of endothelial cells vesicularize in cell shape); cytotoxicity at 10 µM [1]: 100%; 48 hrs (morphology observations) ([2]; 20 μm): *** (more than 50% but less than 100% of endothelial cells vesicularize in cell shape); cytotoxicity at 20 µM [2]: 100% |
| CN1CCN(Nc2c(S(=O)(=O)c3ccc(OC(F)(F)F)cc3)cnc3ccc(OC(F)(F)F)cc23)CC1 [Compound 90] | 0 | 0 |  | 0 | cytotoxicity at 40 µM [2]: 10% |
| O=S(=O)(c1ccc(OC(F)(F)F)cc1)c1cnc2ccc(OC(F)(F)F)cc2c1-n1cncn1 [Compound 91] |  |  |  |  | 48 hrs (morphology observations after 48 hours) ([1]; Conc. 10 μm): *** (100% of endothelial cells vesicularize in cell shape); cytotoxicity at 10 µM [1]: 100%; 48 hrs (morphology observations) ([2]; 20 μm): *** (more than 50% but less than 100% of endothelial cells vesicularize in cell shape); cytotoxicity at 20 µM [2]: 80% |
| CCCCOc1ccc(S(=O)(=O)c2cnc3ccc(OC(F)(F)F)cc3c2NN2CCN(C)CC2)cc1 [Compound 92] | 0 | 0 |  |  | Cell death ([2]; 20 μm): 10% |
